Experiments:
D5 = D5 (Homo sapiens, UniProt P21918); test: D5R β-arrestin recruitment assay (DiscoverX PathHunter, CHO cells); assay type: cell-based; parameters: host or cells: CHO-K1; conditions: for Dopamine D5-β-arrestin Assay: DA + 50 μM PAM, Fold Change EC50: Table 6; for Dopamine D5-β-arrestin Assay: DA + 50 μM PAM, Fold Change EC50 / PAM activity at the D5 receptor / fold change of dopamine EC50 for β-arrestin recruitment to D5R: 50 μM compound; for D5 Beta-Arrestin: DA + 50 μM PAM, Fold Change EC50: fold change of dopamine EC50, 50 μM compound; for DA + 50 μM PAM, Fold Change EC50: fold change of DA EC50 with 50 μM PAM, Dopamine D5-β-arrestin Assay
Procedure: (§1) β-arrestin Recruitment Assay. […] Following 18-24 h of incubation, the cells were treated with the indicated concentrations of compound in PBS buffer containing 0.2 mM sodium metabisulfite, and incubated at 37° C. for 90 min. DiscoverX reagent was added to cells according to the manufacturer's protocol, followed by a 60 min incubation in the dark at room temperature. Luminescence was measured on a Hamamatsu FDSS μ-Cell reader (Hamamatsu, Bridgewater, N.J.) and data were collected using the FDSS software.
Each PAM was also examined in the absence of DA as an agonist, as indicated.

human D1R = human D1R (Homo sapiens, UniProt P21728); test: D1R β-arrestin recruitment assay (DiscoverX PathHunter, CHO-K1 cells); conditions: for Dopamine D1-β-arrestin Assay: DA + 50 μM PAM, Fold Change EC50: Table 5, 50 μM compound; for DA + 50 μM PAM, Fold Change EC50: fold change of DA EC50 with 50 μM PAM, Dopamine D1-β-arrestin Assay
Description: The DiscoverX PathHunter β-Arrestin Assay was used to measure β-arrestin reuitment to the D1R following the manufacturer's instructions.

D4R = biological target: T1, D4R (Homo sapiens, UniProt P21917); test: D4 β-arrestin recruitment assay (DiscoverX PathHunter, CHO-K1 cells); assay type: cell-based; parameters: inferred from the same PathHunter system described for D1R and D5R; host or cells: CHO-K1; conditions: for Dopamine D4-β-arrestin Assay: DA + 50 μM PAM, Fold Change EC50: Table 7, 50 μM compound; for D4 Beta-Arrestin: DA + 50 μM PAM, Fold Change EC50: fold change of dopamine EC50, 50 μM compound; for DA + 50 μM PAM, Fold Change EC50: fold change of DA EC50 with 50 μM PAM, Dopamine D4-β-arrestin Assay
T1 sequence (P21917 1-419): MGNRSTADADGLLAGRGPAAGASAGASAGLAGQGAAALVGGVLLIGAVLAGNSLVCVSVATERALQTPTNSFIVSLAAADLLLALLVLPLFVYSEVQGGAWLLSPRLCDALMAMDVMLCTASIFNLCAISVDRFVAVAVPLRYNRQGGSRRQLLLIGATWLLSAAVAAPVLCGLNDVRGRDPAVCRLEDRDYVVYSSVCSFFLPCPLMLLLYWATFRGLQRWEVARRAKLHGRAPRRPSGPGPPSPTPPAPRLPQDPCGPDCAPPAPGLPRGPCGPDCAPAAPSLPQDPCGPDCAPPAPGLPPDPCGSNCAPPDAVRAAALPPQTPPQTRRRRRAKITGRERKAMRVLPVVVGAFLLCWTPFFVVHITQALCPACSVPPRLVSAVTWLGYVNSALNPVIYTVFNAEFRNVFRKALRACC
Procedure: as §1, with “Assay. Agonist-mediated recruitment of β-arrestin-2 to all five DARs was determined using the DiscoveRx PathHunter complementation assay (DiscoverX Inc, Fremont, Calif.), as previously described (Free, et. al., 2014; Conroy, et. al., 2015).” for “Assay.”

D5, sequence (P21918 whole entry): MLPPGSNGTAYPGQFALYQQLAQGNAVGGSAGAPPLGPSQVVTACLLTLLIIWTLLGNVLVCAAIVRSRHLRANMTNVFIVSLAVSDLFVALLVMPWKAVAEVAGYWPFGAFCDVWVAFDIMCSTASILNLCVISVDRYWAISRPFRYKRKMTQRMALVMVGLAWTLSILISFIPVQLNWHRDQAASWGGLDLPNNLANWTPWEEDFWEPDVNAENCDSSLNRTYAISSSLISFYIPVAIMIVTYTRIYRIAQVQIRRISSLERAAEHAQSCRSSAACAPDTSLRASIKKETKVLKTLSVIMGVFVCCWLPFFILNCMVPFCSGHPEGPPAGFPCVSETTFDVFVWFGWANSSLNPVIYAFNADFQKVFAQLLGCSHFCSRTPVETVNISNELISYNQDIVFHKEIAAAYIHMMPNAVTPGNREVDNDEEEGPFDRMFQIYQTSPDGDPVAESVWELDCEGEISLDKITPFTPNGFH
human D1R, sequence (P21728 whole entry): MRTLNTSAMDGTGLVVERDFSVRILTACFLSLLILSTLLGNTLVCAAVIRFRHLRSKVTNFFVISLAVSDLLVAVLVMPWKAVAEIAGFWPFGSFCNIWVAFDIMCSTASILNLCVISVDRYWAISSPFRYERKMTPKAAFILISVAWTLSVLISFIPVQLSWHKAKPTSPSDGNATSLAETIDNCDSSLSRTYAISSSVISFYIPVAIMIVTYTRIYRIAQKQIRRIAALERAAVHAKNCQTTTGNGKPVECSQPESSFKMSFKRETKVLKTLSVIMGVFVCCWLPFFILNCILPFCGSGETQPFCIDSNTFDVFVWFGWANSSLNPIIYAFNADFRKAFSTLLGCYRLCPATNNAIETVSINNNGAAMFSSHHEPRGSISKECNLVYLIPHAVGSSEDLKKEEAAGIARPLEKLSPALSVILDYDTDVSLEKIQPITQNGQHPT

SMILES | Dopamine D5-β-arrestin Assay: DA + 50 μM PAM, Fold Change EC50 (D5) | Dopamine D1-β-arrestin Assay: DA + 50 μM PAM, Fold Change EC50 (human D1R) | Dopamine D4-β-arrestin Assay: DA + 50 μM PAM, Fold Change EC50 (D4R) | D5 Beta-Arrestin: DA + 50 μM PAM, Fold Change EC50 (D5) | D4 Beta-Arrestin: DA + 50 μM PAM, Fold Change EC50 (D4R) | further results
Cn1c2ccccc2c(=O)c2c(=O)n(C3CCCCCC3)c(C3CCCCC3)nc21 | 1.71 | 3.85 | 0.95 |  |  | 
Oc1cc2c(cc1O)[C@H]1c3ccccc3CN[C@@H]1CC2 (racemic) [dihydrexidine, reference compound] |  |  |  |  |  | Emax (human D1R; CHO-K1, read-out: dihydrexidine Emax): 70.5%
Cc1ccc(-n2c(C3CCCCC3)nc3c(c(=O)c4ccccc4n3C)c2=O)cc1 [Compound 2] |  |  |  | 2.64 | 0.64 | 
Cn1c2ccccc2c(=O)c2c(=O)n(-c3ccc(Cl)cc3)c(C3CCCCC3)nc21 [Compound 3] |  |  |  | 2.03 | 0.61 | 
COc1ccc(-n2c(C3CCCCC3)nc3c(c(=O)c4ccccc4n3C)c2=O)cc1Cl [Compound 4] |  |  |  | 0.77 | 0.61 | 
CC(C)Cc1nc2c(c(=O)c3ccccc3n2C)c(=O)n1-c1ccc(Cl)cc1 [Compound 6] |  |  |  | 0.81 | 0.47 | PAM activity at the D5 receptor (D5): none of these analogs have PAM activity; fold change of dopamine EC50 for β-arrestin recruitment to D5R (D5): 0.8 fold
CC(C)Cc1nc2c(c(=O)c3ccccc3n2C)c(=O)n1-c1cccc(Cl)c1 [Compound 7] |  |  |  | 0.80 | 0.57 | PAM activity at the D5 receptor (D5): none of these analogs have PAM activity; fold change of dopamine EC50 for β-arrestin recruitment to D5R (D5): 0.8 fold
COc1ccc(-n2c(CC(C)C)nc3c(c(=O)c4ccccc4n3C)c2=O)cc1Cl [Compound 8] |  |  |  | 1.53 | 1.20 | 
COc1ccc(-n2c(CC(C)C)nc3c(c(=O)c4ccccc4n3C)c2=O)cc1 [Compound 9] |  |  |  | 2.93 | 1.58 | 
Cc1ccc(-n2c(C3CCCC3)nc3c(c(=O)c4ccccc4n3C)c2=O)cc1 [Compound 10] |  |  |  | 3.11 | 1.33 | 
COc1ccc(-n2c(C3CCCC3)nc3c(c(=O)c4ccccc4n3C)c2=O)cc1 [Compound 11] |  |  |  | 4.10 | 1.46 | 
Cn1c2ccccc2c(=O)c2c(=O)[nH]c(C3CCCC3)nc21 [Compound 12] |  |  |  | 0.66 | 0.71 | 
Cn1c2ccccc2c(=O)c2c(=O)n(-c3cccc(Cl)c3)c(C3CCCC3)nc21 [Compound 14] |  |  |  | 0.91 | 1.90 | 
COc1ccc(-n2c(C3CCCC3)nc3c(c(=O)c4ccccc4n3C)c2=O)cc1Cl [Compound 15] |  |  |  | 1.51 | 1.33 | 
Cn1c2ccccc2c(=O)c2c(=O)n(-c3ccc(Cl)cc3)c(CC3CCCCC3)nc21 [Compound 25] |  |  |  | 2.25 | 0.77 | 
Cc1ccc(-n2c(CC3CCCCC3)nc3c(c(=O)c4ccccc4n3C)c2=O)cc1 [Compound 26] |  |  |  | 1.15 | 1.40 | 
CCCCCc1nc2c(c(=O)c3ccccc3n2C)c(=O)n1C1CCCCCC1 [R1=Cycloheptyl, R2=n-Pentyl, R3=H, X=NMe] | 3.89 | 1.12 | 1.46 |  |  | 
CC(C)(C)C1CCc2c(sc(NC(=O)c3ccco3)c2C(N)=O)C1 (centres unmarked) [R4=NH2; R5=NHCO-2-furanyl; R6=t-Bu] |  |  |  |  |  | DA + 50 μM PAM, Fold Change EC50 (D5): 1.14; DA + 50 μM PAM, Fold Change EC50 (human D1R): 2.19; DA + 50 μM PAM, Fold Change EC50 (D4R): 1.17
Cc1ccccc1NC(=O)c1c(NC(=O)c2ccncc2)sc2c1CCC(C)C2 (centres unmarked) [R4=NH-2-MePH; R5=NHCO-4-pyridyl; R6=Me] |  |  |  |  |  | DA + 50 μM PAM, Fold Change EC50 (D4R): 1.09
Cc1ccccc1NC(=O)c1c(NC(=O)c2ccncc2)sc2c1CCC(C)C2 (centres unmarked) [R4=NH-2-MePh; R5=NHCO-4-pyridyl; R6=Me] |  |  |  |  |  | DA + 50 μM PAM, Fold Change EC50 (D5): 0.83; DA + 50 μM PAM, Fold Change EC50 (human D1R): 2.09

Now from value to compound, other results behind:

Dopamine D5-β-arrestin Assay: DA + 50 μM PAM, Fold Change EC50 (D5) | Dopamine D1-β-arrestin Assay: DA + 50 μM PAM, Fold Change EC50 (human D1R) | Dopamine D4-β-arrestin Assay: DA + 50 μM PAM, Fold Change EC50 (D4R) | D5 Beta-Arrestin: DA + 50 μM PAM, Fold Change EC50 (D5) | D4 Beta-Arrestin: DA + 50 μM PAM, Fold Change EC50 (D4R) | SMILES | further results
 |  |  | 3.35 | 1.19 | COc1ccc(-n2c(C3CCCCC3)nc3c(c(=O)c4ccccc4n3C)c2=O)cc1 [Compound 27] | 
3.81 | 14.1 | 0.95 |  |  | CCCc1nc2c(c(=O)c3ccccc3n2C)c(=O)n1-c1cc(C)cc(C)c1 [R1=3,5-diMePh, R2=n-Propyl, R3=H, X=NMe] | 
2.44 | 1.69 | 1.76 |  |  | CC(C)c1nc2c(c(=O)c3ccccc3n2C)c(=O)n1-c1ccc(F)cc1 [R1=4-FPh, R2=i-Propyl, R3=H, X=NMe] | 
6.74 | 1.32 | 1.24 |  |  | Cn1c2ccccc2c(=O)c2c(=O)n(Cc3ccccc3)c(-c3ccc(F)cc3)nc21 [R1=Bn, R2=4-FPh, R3=H, X=NMe] | 
7.78 | 3.47 | 0.8 |  |  | CCCc1nc2c(c(=O)c3ccccc3n2C)c(=O)n1C1CCCCCC1 [R1=Cycloheptyl, R2=n-Propyl, R3=H, X=NMe] | 
4.94 | 0.85 | 0.99 |  |  | COc1ccc2c(=O)c3c(=O)n(-c4ccccc4)c(-c4ccc(C)cc4)nc3oc2c1 [R1=Ph, R2=4-MePh, R3=MeO, X=O] | 
35.49 | 1.33 | 0.8 |  |  | Cn1c2ccccc2c(=O)c2c(=O)n(-c3ccccc3)c(-c3ccc(C(C)(C)C)cc3)nc21 [R1=Ph, R2=4-t-BuPh, R3=H, X=NMe] | 
17.2 | 2.06 | 1.7 |  |  | CC(C)Cn1c(-c2ccco2)nc2c(c(=O)c3ccccc3n2C)c1=O [R1=i-Bu, R2=2-furyl, R3=H, X=NMe] | 

Reference: patent publication US20210040074A1 (The United States of America,as represented by the …, priority 2018, published 2021)
